Measured values from PubChem BioAssay (NCI).
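Assay format: 96-well plates, 48-hour exposure. Abbreviation: GI50, concentration required for 50% inhibition of growth. At the TGI there is no net growth.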

Experiments:
Test in all cases: NCI anticancer screen, dose series, 48 h
786-0 renal = test system: 786-0 renal
A498 renal = test system: A498 renal
A549 NSCLC = test system: A549 NSCLC
ACHN renal = test system: ACHN renal
BT-549 breast = test system: BT-549 breast
CAKI-1 renal = test system: CAKI-1 renal
CCRF-CEM leukemia = test system: CCRF-CEM leukemia
COLO 205 colon = test system: COLO 205 colon
DU-145 prostate = test system: DU-145 prostate
HCC-2998 colon = test system: HCC-2998 colon
HCT-116 colon = test system: HCT-116 colon
HCT-15 colon = test system: HCT-15 colon
HL-60(TB) leukemia = test system: HL-60(TB) leukemia
HOP-62 NSCLC = test system: HOP-62 NSCLC
HOP-92 NSCLC = test system: HOP-92 NSCLC
HS 578T breast = test system: HS 578T breast
HT29 colon = test system: HT29 colon
IGROV1 ovarian = test system: IGROV1 ovarian
K-562 leukemia = test system: K-562 leukemia
KM12 colon = test system: KM12 colon
LOX IMVI melanoma = test system: LOX IMVI melanoma
M14 melanoma = test system: M14 melanoma
MALME-3M melanoma = test system: MALME-3M melanoma
MCF7 breast = test system: MCF7 breast
MDA-MB-231 breast = test system: MDA-MB-231 breast
MDA-MB-435 = test system: MDA-MB-435
MOLT-4 leukemia = test system: MOLT-4 leukemia
NCI-H226 lung = test system: NCI-H226 lung
NCI-H23 lung = test system: NCI-H23 lung
NCI-H460 lung = test system: NCI-H460 lung
NCI-H522 lung = test system: NCI-H522 lung
NCI/ADR-RES ovarian = test system: NCI/ADR-RES ovarian
OVCAR-3 ovarian = test system: OVCAR-3 ovarian
OVCAR-4 ovarian = test system: OVCAR-4 ovarian
OVCAR-5 ovarian = test system: OVCAR-5 ovarian
OVCAR-8 ovarian = test system: OVCAR-8 ovarian
PC-3 prostate = test system: PC-3 prostate
RPMI-8226 leukemia = test system: RPMI-8226 leukemia
RXF 393 renal = test system: RXF 393 renal
SF-268 CNS = test system: SF-268 CNS
SF-295 CNS = test system: SF-295 CNS
SF-539 CNS = test system: SF-539 CNS
SK-MEL-2 melanoma = test system: SK-MEL-2 melanoma
SK-MEL-28 melanoma = test system: SK-MEL-28 melanoma
SK-MEL-5 melanoma = test system: SK-MEL-5 melanoma
SK-OV-3 ovarian = test system: SK-OV-3 ovarian
SN12C renal = test system: SN12C renal
SNB-19 CNS = test system: SNB-19 CNS
SNB-75 CNS = test system: SNB-75 CNS
SR leukemia = test system: SR leukemia
SW-620 colon = test system: SW-620 colon
T-47D breast = test system: T-47D breast
TK-10 renal = test system: TK-10 renal
U251 CNS = test system: U251 CNS
UACC-257 melanoma = test system: UACC-257 melanoma
UACC-62 melanoma = test system: UACC-62 melanoma
UO-31 renal = test system: UO-31 renal

For `CC1(C)N=C(N)N=C(N)N1c1cccc(CCCCOc2ccccc2)c1`, the GI50 (786-0 renal) was 0.142 µM, the TGI (786-0 renal) was greater than 100 µM and the GI50 (A498 renal) was 1.8 µM. For the same molecule, the TGI (A498 renal) was greater than 81.3 µM, the GI50 (A549 NSCLC) was 0.0562 µM and the TGI (A549 NSCLC) was 98.8 µM. For the same molecule, the GI50 (ACHN renal) was 3.85 µM, the TGI (ACHN renal) was greater than 100 µM and the GI50 (BT-549 breast) was 1.15 µM. For the same molecule, the TGI (BT-549 breast) was 16.8 µM, the GI50 (CAKI-1 renal) was 2.7 µM and the TGI (CAKI-1 renal) was greater than 100 µM. It also gave a GI50 (CCRF-CEM leukemia) of 0.0414 µM, a TGI (CCRF-CEM leukemia) of 32.7 µM and a GI50 (COLO 205 colon) of 0.0222 µM. It also gave a TGI (COLO 205 colon) of 14.4 µM, a GI50 (DU-145 prostate) of 0.0626 µM and a TGI (DU-145 prostate) greater than 100 µM. It also gave a GI50 (HCC-2998 colon) of 0.0775 µM, a TGI (HCC-2998 colon) of 17.2 µM and a GI50 (HCT-116 colon) of less than 0.01 µM. It also gave a TGI (HCT-116 colon) greater than 100 µM, a GI50 (HCT-15 colon) of 3.01 µM and a TGI (HCT-15 colon) greater than 100 µM. It also gave a GI50 (HL-60(TB) leukemia) of 0.0239 µM, a TGI (HL-60(TB) leukemia) of 9.6 µM and a GI50 (HOP-62 NSCLC) of 0.663 µM. The TGI (HOP-62 NSCLC) was greater than 87.1 µM, the GI50 (HOP-92 NSCLC) was 2.26 µM and the TGI (HOP-92 NSCLC) was 30.3 µM. The GI50 (HS 578T breast) was 10.2 µM, the TGI (HS 578T breast) was 37.3 µM and the GI50 (HT29 colon) was less than 0.01 µM. For the same molecule, the TGI (HT29 colon) was 15.7 µM, the GI50 (IGROV1 ovarian) was less than 0.0118 µM and the TGI (IGROV1 ovarian) was 15.7 µM. For the same molecule, the GI50 (K-562 leukemia) was 0.05 µM, the TGI (K-562 leukemia) was greater than 100 µM and the GI50 (KM12 colon) was 0.0398 µM. It also gave a TGI (KM12 colon) of 25 µM, a GI50 (LOX IMVI melanoma) of 0.0395 µM and a TGI (LOX IMVI melanoma) of 14.7 µM. It also gave a GI50 (M14 melanoma) of 0.0958 µM, a TGI (M14 melanoma) greater than 41.3 µM and a GI50 (MALME-3M melanoma) of 7.22 µM. The TGI (MALME-3M melanoma) was 29.8 µM, the GI50 (MCF7 breast) was 0.05 µM and the TGI (MCF7 breast) was 17.5 µM. For the same molecule, the GI50 (MDA-MB-231 breast) was 0.881 µM, the TGI (MDA-MB-231 breast) was 48.6 µM and the GI50 (MDA-MB-435) was less than 0.0194 µM. The TGI (MDA-MB-435) was 25 µM, the GI50 (MOLT-4 leukemia) was 0.0629 µM and the TGI (MOLT-4 leukemia) was 36.3 µM. The GI50 (NCI-H226 lung) was 0.801 µM, the TGI (NCI-H226 lung) was greater than 100 µM and the GI50 (NCI-H23 lung) was 0.0664 µM. The TGI (NCI-H23 lung) was 81.4 µM, the GI50 (NCI-H460 lung) was less than 0.01 µM and the TGI (NCI-H460 lung) was 12.4 µM. It also gave a GI50 (NCI-H522 lung) of 0.0614 µM, a TGI (NCI-H522 lung) of 13.3 µM and a GI50 (NCI/ADR-RES ovarian) greater than 100 µM. It also gave a TGI (NCI/ADR-RES ovarian) greater than 100 µM, a GI50 (OVCAR-3 ovarian) of 0.547 µM and a TGI (OVCAR-3 ovarian) of 21 µM. It also gave a GI50 (OVCAR-4 ovarian) of 0.441 µM, a TGI (OVCAR-4 ovarian) of 38.6 µM and a GI50 (OVCAR-5 ovarian) of less than 0.0335 µM. It also gave a TGI (OVCAR-5 ovarian) greater than 100 µM, a GI50 (OVCAR-8 ovarian) of 0.465 µM and a TGI (OVCAR-8 ovarian) greater than 100 µM. For the same molecule, the GI50 (PC-3 prostate) was less than 0.01 µM, the TGI (PC-3 prostate) was 9.96 µM and the GI50 (RPMI-8226 leukemia) was 0.0601 µM. It also gave a TGI (RPMI-8226 leukemia) of 13.6 µM, a GI50 (RXF 393 renal) of 0.147 µM and a TGI (RXF 393 renal) greater than 100 µM. It also gave a GI50 (SF-268 CNS) of 0.0558 µM, a TGI (SF-268 CNS) of 22.9 µM and a GI50 (SF-295 CNS) of 0.34 µM. The TGI (SF-295 CNS) was greater than 68.4 µM, the GI50 (SF-539 CNS) was 0.127 µM and the TGI (SF-539 CNS) was 17 µM. It also gave a GI50 (SK-MEL-2 melanoma) of 1.61 µM, a TGI (SK-MEL-2 melanoma) of 19.9 µM and a GI50 (SK-MEL-28 melanoma) of 0.521 µM. The TGI (SK-MEL-28 melanoma) was 20.6 µM, the GI50 (SK-MEL-5 melanoma) was 0.423 µM and the TGI (SK-MEL-5 melanoma) was 5.29 µM. The GI50 (SK-OV-3 ovarian) was 1.91 µM, the TGI (SK-OV-3 ovarian) was greater than 100 µM and the GI50 (SN12C renal) was 0.14 µM. For the same molecule, the TGI (SN12C renal) was 46.1 µM, the GI50 (SNB-19 CNS) was 0.326 µM and the TGI (SNB-19 CNS) was greater than 77.4 µM. For the same molecule, the GI50 (SNB-75 CNS) was 0.195 µM, the TGI (SNB-75 CNS) was 22.9 µM and the GI50 (SR leukemia) was less than 0.011 µM. The TGI (SR leukemia) was 20.7 µM, the GI50 (SW-620 colon) was 0.0164 µM and the TGI (SW-620 colon) was greater than 100 µM. It also gave a GI50 (T-47D breast) of 1.62 µM, a TGI (T-47D breast) of 30.1 µM and a GI50 (TK-10 renal) of 0.197 µM. It also gave a TGI (TK-10 renal) of 62.6 µM, a GI50 (U251 CNS) of 0.0488 µM and a TGI (U251 CNS) of 55.7 µM. The GI50 (UACC-257 melanoma) was 0.381 µM, the TGI (UACC-257 melanoma) was 23.5 µM and the GI50 (UACC-62 melanoma) was 0.0467 µM. The TGI (UACC-62 melanoma) was 13.7 µM, the GI50 (UO-31 renal) was 47.2 µM and the TGI (UO-31 renal) was greater than 100 µM.
